Assay results published in patent US20160215267A1, “METHODS FOR GENERATING 3D CELL CULTURE MODEL IN HIGH RESPIRATION ENVIRONMENTS FOR HIGH-CONTENT ANALYSES AND SCREENING” (IKKO-ZU CORPORATION, priority 2015, published 2016).

Test system: HepG2/C3A
Test: Drug-induced liver injury (DILI) simulated by adjusting air supply from the well bottom, island-shaped 3Ds on PDMS
Assay type: cell-based, human
Details: 24 h exposure, highest concentration 20 mM
Procedure: Compounds were dissolved at 200 times the highest test concentration in 100% DMSO. […] The final DMSO concentration was set constant and less than 0.4% over the tested dilutions. […] Therefore, serially-diluted compounds were finally diluted in situ at 1/2 and mixed by a gentle rocking motion a few times. […]
Cells grown as island 3Ds in the gas-permeable PDMS membrane were exposed to drug treatments described above. […] The plates were equilibrated to 5% CO2 and 3TC and measured by Opera (PerkinElmer).
For detailed global image acquisition, a 20× objective was used in spinning-disc confocal mode. […] Then the cell area was estimated for selected nuclei in the regions, and TMRM emission intensity in the cell regions was calculated for the selected cells over the 4 designated fields per well. […] For the dose-response and Z′ values, the intensity values were analyzed on a projection image representing the peak intensity values for each of 4 Z-planes projected onto a single image. For the detailed analysis of the entire 3Ds, each Z-plane was individually analyzed.

## CC(=O)Nc1ccc(O)cc1 [Acetaminophen, acetaminophen]
3Ds on PDMS membrane left entirely bare
  toxicity response (dose response curve): apparently unresponsive
3Ds on PDMS membrane partially-sealed
  toxicity response (dose response curve): suggesting a DILI effect
